# From US20240180893A1, “METHODS OF TREATMENT OF BREAST CANCER” (AstraZeneca AB, priority 2022, published 2024)
# How the values were obtained:
# Type in all cases: in vivo, human (post-menopausal women)
# [1] = test system: HR+, HER2− metastatic or loco-regionally recurrent breast cancer; assay: SERENA-2 phase 2 study: objective response rate (ORR), patients with measurable disease; conditions: for Number of patients with response: includes unconfirmed responses; for Adjusted response rate (%): logistic regression, factors prior CDK4/6 inhibitor and lung and/or liver metastasis; for (%) of patients with response: patients with measurable disease; for ORR: comparison against fulvestrant, odds ratio: odds ratio > 1 favors AZD9833
# Description: In embodiments the specification provides a method of treatment of hormone receptor positive (HR+), human epidermal growth factor receptor 2 negative (HER2−), metastatic or loco-regionally recurrent breast cancer, comprising administering camizestrant to a patient suffering from such cancer, characterised in that the cancer has recurred or progressed following at least one prior line of endocrine therapy, wherein the treatment delivers an improvement in objective response rate (ORR) relative to that obtainable with fulvestrant treatment. The ORR is defined as the percentage of patients with at least 1 Investigator-assessed visit response of complete response (CR) or partial response (PR) prior to any evidence of progression. Complete or partial responses are assessed according to the RECIST 1.1 criteria as detailed below. In embodiments the ORR derived from the method of treatment is at least 15.7%, for example 20.3%.
# A complete response denotes the disappearance of all target lesions (TLs) since baseline. Any pathological lymph nodes selected as TLs must have a reduction in short axis to <10 mm. A partial response denotes an at least a 30% decrease in the sum of the diameters of TL, taking as reference the baseline sum of diameters. […] Further information on the evaluation of target and non-target lesions is provided below.
# The objective response rate (ORR) will be compared between AZD9833 (each dose level) and fulvestrant using a logistic regression model adjusting for prior use of CDK4/6 inhibitors and presence of lung and/or liver metastases.
# Secondary endpoints: objective response rate. The ORR is defined as the percentage of patients with at least 1 Investigator-assessed visit response of CR or PR prior to any evidence of progression. The ORR will be based on a subset of the FAS with measurable disease at baseline.
# The ORR will be compared between AZD9833 (each dose level) and fulvestrant using a logistic regression model adjusting for prior use of CDK4/6 inhibitors and presence of lung and/or liver metastases. The results of the analysis will be presented in terms of an odds ratio for each treatment comparison together with its associated profile likelihood 90% CI and 2 sided p values (based on twice the change in log-likelihood resulting from the addition of a treatment factor to the model).
# ESR1m ctDNA = assay: SERENA-2 phase 2 study: changes in ESR1m ctDNA summed Variant Allele Frequency (sVAF %)
# Description: FIG. 6: Changes in ESR1m ctDNA summed Variant Allele Frequency (sVAF %) by treatment group and visit comparisons (pre-treatment is a comparison of samples collected at screening and cycle 1 day 1, C×D1 are comparisons of samples collected at cycle 1 day 1 and cycle×day 1). Variants defined as ESR1m are E380Q, V422del, S463P, L536H/P/R, Y537C/D/N/S. Points represent individual patients, box represents upper quartile, median and lower quartile, whiskers represent 1.5 interquartile range. Treatment with camizestrant 75 mg and 150 mg caused a 100% or near 100% reduction in the level of ESR1m at all timepoints.
# Blood and plasma samples for circulating tumour (ctDNA) and cancer antigen 15-3 (CA15-3) analyses will be collected at screening, on Day 1 and Day 15 of Cycle 1, on Day 1 of Cycles 2 to 5, 8-weekly (Day 1 of every 2nd cycle) from Week 25 (Cycle 7) to coincide with tumour imaging, at the EOT and/or disease progression.
# The following samples for biomarker research are optional and will collected from patients in the study where possible as specified in the SoA (Table 6). • Paired tumour biopsy samples; pre- and on-treatment. Samples will be collected for patients with tumours amenable to biopsies in up to 12 patients per treatment group. • Additional tumour biopsy samples may be collected at time of progression. Blood samples for circulating tumour DNA. […]
# [2] = test system: HR+, HER2− metastatic or loco-regionally recurrent breast cancer; assay: SERENA-2 phase 2 study: clinical benefit rate at 24 weeks (CBR24); conditions: for Adjusted CBR24 rate (%): logistic regression, factors prior CDK4/6 inhibitor and lung and/or liver metastasis; for CBR24: comparison against fulvestrant, odds ratio: odds ratio > 1 favors AZD9833
# Description: (§1) The CBR24 is defined as the percentage of patients who have a best objective response (BoR) of CR or PR in the first 25 weeks (to allow for a late assessment within the assessment window) or who have SD (without subsequent cancer therapy) for at least 23 weeks after start of treatment (to allow for an early assessment within the assessment window). The CBR is defined based on the Investigator's assessment of RECIST 1.1.
# The CBR24 will be summarised by treatment group and analysed using a logistic regression model (similarly to the analysis for the ORR).
# as §1, with “Secondary endpoints: clinical benefit rate at 24 weeks. The CBR24” for “The CBR24”, “The CBR will be defined based” for “The CBR is defined based”, “assessment of RECIST, and will be summarised by treatment group and analysed using a logistic regression model (similarly to the analysis for the ORR).” for “assessment of RECIST 1.1.”
compound,measurement,setting,value
"C[C@]12CC[C@@H]3c4ccc(O)cc4C[C@@H](CCCCCCCCC[S+]([O-])CCCC(F)(F)C(F)(F)F)[C@H]3[C@@H]1CC[C@@H]2O (stereo partly drawn) [fulvestrant, reference compound]",Number of patients with response,"[1]; fulvestrant, N=68 with measurable disease",8
same,Adjusted response rate (%),[1]; fulvestrant,11.5%
same,(%) of patients with response,[1]; fulvestrant,(11.8) %
same,Reduction in ESR1m ctDNA,"ESR1m ctDNA; fulvestrant arm, compared with camizestrant",the extent of the reduction is lower than that observed with camizestrant
same,(%) of patients with clinical benefit at 24 weeks,[2]; fulvestrant,36.8%
same,Number of patients with clinical benefit at 24 weeks,"[2]; fulvestrant, N=68 evaluable",25
same,Adjusted CBR24 rate (%),[2]; fulvestrant,37.1%
"C[C@@H]1Cc2c(ccc3[nH]ncc23)[C@@H](c2ccc(NC3CN(CCCF)C3)cn2)N1CC(F)(F)F [camizestrant, N-(1-(3-fluoropropyl)azetidin-3-yl)-6-((6S,8R)-8-methyl-7-(2,2,2-trifluoroethyl)-6,7,8,9-tetrahydro-3H-pyrazolo[4,3-f]isoquinolin-6-yl)pyridin-3-amine]",Number of patients with response,"[1]; AZD9833 75 mg, N=70 with measurable disease",11
same,Adjusted response rate (%),[1]; AZD9833 75 mg,15.7%
same,"ORR: comparison against fulvestrant, odds ratio",[1]; AZD9833 75 mg,1.43
same,(%) of patients with response,[1]; AZD9833 75 mg,(15.7) %
same,Number of patients with response,"[1]; AZD9833 150 mg, N=65 with measurable disease",13
same,Adjusted response rate (%),[1]; AZD9833 150 mg,20.3%
same,"ORR: comparison against fulvestrant, odds ratio",[1]; AZD9833 150 mg,1.96
same,(%) of patients with response,[1]; AZD9833 150 mg,(20.0) %
same,Reduction in the level of ESR1m (ctDNA sVAF),"ESR1m ctDNA; camizestrant 75 mg and 150 mg, all timepoints vs cycle 1 day 1",~100%
same,(%) of patients with clinical benefit at 24 weeks,[2]; AZD9833 75 mg,48.6%
same,Number of patients with clinical benefit at 24 weeks,"[2]; AZD9833 75 mg, N=70 evaluable",34
same,Adjusted CBR24 rate (%),[2]; AZD9833 75 mg,50.4%
same,"CBR24: comparison against fulvestrant, odds ratio",[2]; AZD9833 75 mg,1.73
same,(%) of patients with clinical benefit at 24 weeks,[2]; AZD9833 150 mg,52.3%
same,Number of patients with clinical benefit at 24 weeks,"[2]; AZD9833 150 mg, N=65 evaluable",34
same,Adjusted CBR24 rate (%),[2]; AZD9833 150 mg,55.2%
same,"CBR24: comparison against fulvestrant, odds ratio",[2]; AZD9833 150 mg,2.09
